PubChem BioAssay (NCI)
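The concentration for 50% growth inhibition is given as GI50. At the TGI there is no net growth.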

Columns and labels:
Test in all cases: NCI tumour cell line growth inhibition, 384-well format
[1] = tested on: NCI/ADR-RES ovarian
[2] = tested on: SF-295 CNS
[3] = tested on: SK-MEL-28 melanoma
[4] = tested on: MDA-MB-468 breast
[5] = tested on: OVCAR-4 ovarian
[6] = tested on: NCI-H226 lung
[7] = tested on: SW-620 colon
[8] = tested on: KM12 colon
[9] = tested on: U251 glioblastoma
[10] = tested on: 786-0 renal
[11] = tested on: LOX IMVI melanoma
[12] = tested on: CAKI-1 renal
[13] = tested on: NCI-H322M lung
[14] = tested on: OVCAR-8 ovarian
[15] = tested on: M14 melanoma
[16] = tested on: HOP-92 NSCLC
[17] = tested on: OVCAR-5 ovarian
[18] = tested on: MALME-3M melanoma
[19] = tested on: UACC-62 melanoma
[20] = tested on: TK-10 renal
[21] = tested on: MOLT-4 leukemia
[22] = tested on: OVCAR-3 ovarian
[23] = tested on: SN12C renal
[24] = tested on: SF-539 CNS
[25] = tested on: NCI-H522 lung
[26] = tested on: A549 NSCLC
[27] = tested on: A498 renal
[28] = tested on: K-562 leukemia
[29] = tested on: UACC-257 melanoma
[30] = tested on: HCT-15 colon
[31] = tested on: SK-MEL-5 melanoma
[32] = tested on: HCC-2998 colon
[33] = tested on: HT29 colon
[34] = tested on: DU-145 prostate
[35] = tested on: IGROV1 ovarian
[36] = tested on: HS 578T breast
[37] = tested on: BT-549 breast
[38] = tested on: NCI-H460 NSCLC
[39] = tested on: MDA-MB-231 breast
[40] = tested on: HL-60(TB) leukemia
[41] = tested on: EKVX NSCLC
[42] = tested on: HCT-116 colon
[43] = tested on: SF-268 CNS
[44] = tested on: HOP-62 NSCLC
[45] = tested on: SNB-75 CNS
[46] = tested on: CCRF-CEM leukemia
[47] = tested on: T-47D breast
[48] = tested on: ACHN renal
[49] = tested on: MDA-MB-435 melanoma
[50] = tested on: RPMI-8226 leukemia
[51] = tested on: MCF7 breast
[52] = tested on: SK-OV-3 ovarian
[53] = tested on: UO-31 renal
[54] = tested on: NCI-H23 lung
[55] = tested on: RXF 393 renal
[56] = tested on: SNB-19 CNS
[57] = tested on: COLO 205 colon
[58] = tested on: PC-3 prostate

Question: How did the GI50 [1] turn out when `O=C1[C@H](Cc2ccc(O)cc2)N2C(=O)CCN(C(=O)NCc3ccccc3)[C@H]2CN1Cc1cccc2ccccc12` was run?
Answer: > 100 µM

Question: And the TGI [1]?
Answer: > 100 µM

Question: And the GI50 [2]?
Answer: 3.79 µM

Question: And the TGI [2]?
Answer: 13.7 µM

Question: What about the GI50 [3] of the same compound?
Answer: 1.98 µM

Question: And the TGI [3]?
Answer: 11.4 µM

Question: And the GI50 [4]?
Answer: 3.46 µM

Question: What about the TGI [4] of the same compound?
Answer: 15.6 µM

Question: What about the GI50 [5] of the same compound?
Answer: 2.92 µM

Question: And the TGI [5]?
Answer: 17.2 µM

Question: What about the GI50 [6] of the same compound?
Answer: 2.95 µM

Question: What about the TGI [6] of the same compound?
Answer: 11.1 µM

Question: And the GI50 [7]?
Answer: 7.63 µM

Question: What about the TGI [7] of the same compound?
Answer: > 100 µM

Question: What about the GI50 [8] of the same compound?
Answer: 2.82 µM

Question: And the TGI [8]?
Answer: 13.6 µM

Question: What about the GI50 [9] of the same compound?
Answer: 0.578 µM

Question: What about the TGI [9] of the same compound?
Answer: 11.2 µM

Question: And the GI50 [10]?
Answer: 2.76 µM

Question: And the TGI [10]?
Answer: 16.9 µM

Question: What about the GI50 [11] of the same compound?
Answer: 1.15 µM

Question: And the TGI [11]?
Answer: 5.36 µM

Question: What about the GI50 [12] of the same compound?
Answer: 2.15 µM

Question: What about the TGI [12] of the same compound?
Answer: 5.94 µM

Question: And the GI50 [13]?
Answer: 3.72 µM

Question: What about the TGI [13] of the same compound?
Answer: 19.1 µM

Question: And the GI50 [14]?
Answer: 1.35 µM

Question: And the TGI [14]?
Answer: 11.9 µM

Question: And the GI50 [15]?
Answer: 2.78 µM

Question: And the TGI [15]?
Answer: 12.4 µM

Question: And the GI50 [16]?
Answer: 0.386 µM

Question: And the TGI [16]?
Answer: 1.88 µM

Question: And the GI50 [17]?
Answer: 1.44 µM

Question: And the TGI [17]?
Answer: 9.66 µM

Question: And the GI50 [18]?
Answer: 1.24 µM

Question: What about the TGI [18] of the same compound?
Answer: 5.89 µM

Question: What about the GI50 [19] of the same compound?
Answer: 1.35 µM

Question: And the TGI [19]?
Answer: 8.06 µM

Question: What about the GI50 [20] of the same compound?
Answer: 6.57 µM

Question: What about the TGI [20] of the same compound?
Answer: 24.1 µM

Question: What about the GI50 [21] of the same compound?
Answer: 0.319 µM

Question: And the TGI [21]?
Answer: 1.19 µM

Question: And the GI50 [22]?
Answer: 0.632 µM

Question: And the TGI [22]?
Answer: 6.89 µM

Question: What about the GI50 [23] of the same compound?
Answer: 2.78 µM

Question: And the TGI [23]?
Answer: 16.8 µM

Question: What about the GI50 [24] of the same compound?
Answer: 0.564 µM

Question: And the TGI [24]?
Answer: 9.79 µM

Question: And the GI50 [25]?
Answer: 0.518 µM

Question: And the TGI [25]?
Answer: 12.6 µM

Question: What about the GI50 [26] of the same compound?
Answer: 1.83 µM

Question: What about the TGI [26] of the same compound?
Answer: 13.8 µM

Question: And the GI50 [27]?
Answer: 2.9 µM

Question: What about the TGI [27] of the same compound?
Answer: 9.62 µM

Question: What about the GI50 [28] of the same compound?
Answer: 0.828 µM

Question: What about the TGI [28] of the same compound?
Answer: 14.1 µM

Question: What about the GI50 [29] of the same compound?
Answer: 3.45 µM

Question: What about the TGI [29] of the same compound?
Answer: 14 µM

Question: What about the GI50 [30] of the same compound?
Answer: 18.9 µM

Question: And the TGI [30]?
Answer: 82.9 µM

Question: And the GI50 [31]?
Answer: 1.33 µM

Question: And the TGI [31]?
Answer: 4.11 µM

Question: And the GI50 [32]?
Answer: 2.1 µM

Question: What about the TGI [32] of the same compound?
Answer: 15.3 µM

Question: And the GI50 [33]?
Answer: 3.17 µM

Question: And the TGI [33]?
Answer: 15.8 µM

Question: And the GI50 [34]?
Answer: 4.25 µM

Question: What about the TGI [34] of the same compound?
Answer: 17.1 µM

Question: What about the GI50 [35] of the same compound?
Answer: 0.353 µM

Question: And the TGI [35]?
Answer: 2.49 µM

Question: What about the GI50 [36] of the same compound?
Answer: 0.182 µM

Question: What about the TGI [36] of the same compound?
Answer: 0.77 µM

Question: What about the GI50 [37] of the same compound?
Answer: 1.28 µM

Question: What about the TGI [37] of the same compound?
Answer: 11.6 µM

Question: And the GI50 [38]?
Answer: 0.858 µM

Question: And the TGI [38]?
Answer: 5.2 µM

Question: And the GI50 [39]?
Answer: 0.556 µM

Question: What about the TGI [39] of the same compound?
Answer: 12 µM

Question: What about the GI50 [40] of the same compound?
Answer: 3.98 µM

Question: And the TGI [40]?
Answer: 15 µM

Question: And the GI50 [41]?
Answer: 6.96 µM

Question: What about the TGI [41] of the same compound?
Answer: 30.7 µM

Question: And the GI50 [42]?
Answer: 0.738 µM

Question: What about the TGI [42] of the same compound?
Answer: 11.8 µM

Question: What about the GI50 [43] of the same compound?
Answer: 0.287 µM

Question: And the TGI [43]?
Answer: 0.792 µM

Question: What about the GI50 [44] of the same compound?
Answer: 2.99 µM

Question: What about the TGI [44] of the same compound?
Answer: 11.9 µM

Question: What about the GI50 [45] of the same compound?
Answer: 0.421 µM

Question: What about the TGI [45] of the same compound?
Answer: 2.23 µM

Question: And the GI50 [46]?
Answer: 1.33 µM

Question: What about the TGI [46] of the same compound?
Answer: 7.73 µM

Question: What about the GI50 [47] of the same compound?
Answer: 0.441 µM

Question: And the TGI [47]?
Answer: 3.68 µM

Question: And the GI50 [48]?
Answer: 10.7 µM

Question: What about the TGI [48] of the same compound?
Answer: 37.7 µM

Question: What about the GI50 [49] of the same compound?
Answer: 4.85 µM

Question: What about the TGI [49] of the same compound?
Answer: 17.7 µM

Question: And the GI50 [50]?
Answer: 2.03 µM

Question: What about the TGI [50] of the same compound?
Answer: 12.3 µM

Question: And the GI50 [51]?
Answer: 5.44 µM

Question: And the TGI [51]?
Answer: 20 µM

Question: And the GI50 [52]?
Answer: 1.66 µM

Question: And the TGI [52]?
Answer: 10.3 µM

Question: What about the GI50 [53] of the same compound?
Answer: 16.1 µM

Question: And the TGI [53]?
Answer: 33.3 µM

Question: What about the GI50 [54] of the same compound?
Answer: 4.97 µM

Question: And the TGI [54]?
Answer: 17.7 µM

Question: And the GI50 [55]?
Answer: 3.22 µM

Question: What about the TGI [55] of the same compound?
Answer: 14.6 µM

Question: And the GI50 [56]?
Answer: 0.678 µM

Question: What about the TGI [56] of the same compound?
Answer: 21.8 µM

Question: What about the GI50 [57] of the same compound?
Answer: 0.662 µM

Question: And the TGI [57]?
Answer: 10.2 µM

Question: What about the GI50 [58] of the same compound?
Answer: 1.74 µM

Question: What about the TGI [58] of the same compound?
Answer: 9.23 µM
